Legend:
[1] = biological target: T1, kappa opioid receptor (KOR) (Mus musculus, UniProt P33534); experiment: biochemical; assay type: binding, mice
[2] = biological target: T2, delta opioid receptor (DOR) (Mus musculus, UniProt P32300); experiment: DOR competitive radioligand binding; parameters: species or system mice
mu opioid receptor (MOR) [3] = biological target: T3, mu opioid receptor (MOR) (Mus musculus, UniProt P42866); experiment: MOR competitive radioligand binding; parameters: species or system mice
morphine dependent mice = experiment: Opioid withdrawal assay in morphine-pelleted mice; assay type: in vivo; conditions: for Escape jumps, effect of dose / Wet dog shakes, effect of dose: increasing dose up to 30 mg/kg s.c.; for Precipitated withdrawal symptoms, overall comparison: s.c.; for Wet dog shakes at 30 mg/kg: 30 mg/kg s.c., compared with 1 mg/kg naloxone and naltrexone
antinociception = experiment: Warm-water tail flick assay, acute agonist effect; conditions: up to 30 mg/kg dose; s.c.
[4] = biological target: T1, kappa opioid receptor (KOR); experiment: KOR [35S]-GTPγS binding assay
[5] = biological target: T2, delta opioid receptor (DOR); experiment: DOR [35S]-GTPγS binding assay
mu opioid receptor (MOR) [6] = biological target: T3, mu opioid receptor (MOR); experiment: MOR [35S]-GTPγS functional assay; assay type: biochemical, mice
KOR = conditions: cited from earlier work
[7] = 1 mg/kg s.c., morphine-pelleted mice, counted over 20 minutes

T3 sequence (P42866 whole entry): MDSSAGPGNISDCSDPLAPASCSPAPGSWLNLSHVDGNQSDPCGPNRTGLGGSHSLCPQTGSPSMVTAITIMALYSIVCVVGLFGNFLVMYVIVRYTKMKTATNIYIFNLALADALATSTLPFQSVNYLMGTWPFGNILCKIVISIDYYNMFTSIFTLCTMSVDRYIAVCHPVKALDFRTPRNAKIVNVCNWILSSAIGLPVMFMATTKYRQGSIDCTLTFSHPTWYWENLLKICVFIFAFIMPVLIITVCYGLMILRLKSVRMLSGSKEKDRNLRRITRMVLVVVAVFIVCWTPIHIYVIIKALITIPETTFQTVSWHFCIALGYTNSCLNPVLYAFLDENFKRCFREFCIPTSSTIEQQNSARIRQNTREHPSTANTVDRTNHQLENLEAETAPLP
T2 sequence (P32300 whole entry): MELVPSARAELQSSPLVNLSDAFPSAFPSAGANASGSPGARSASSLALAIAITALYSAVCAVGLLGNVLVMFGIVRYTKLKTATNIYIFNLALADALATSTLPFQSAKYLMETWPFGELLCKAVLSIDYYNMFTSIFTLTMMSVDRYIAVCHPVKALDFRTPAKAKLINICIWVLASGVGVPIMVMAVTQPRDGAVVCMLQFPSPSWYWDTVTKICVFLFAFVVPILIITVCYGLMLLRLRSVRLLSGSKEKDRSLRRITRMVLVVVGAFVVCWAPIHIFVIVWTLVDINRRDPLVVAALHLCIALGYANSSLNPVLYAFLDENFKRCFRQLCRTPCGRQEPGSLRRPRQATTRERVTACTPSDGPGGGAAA
T1 sequence (P33534 whole entry): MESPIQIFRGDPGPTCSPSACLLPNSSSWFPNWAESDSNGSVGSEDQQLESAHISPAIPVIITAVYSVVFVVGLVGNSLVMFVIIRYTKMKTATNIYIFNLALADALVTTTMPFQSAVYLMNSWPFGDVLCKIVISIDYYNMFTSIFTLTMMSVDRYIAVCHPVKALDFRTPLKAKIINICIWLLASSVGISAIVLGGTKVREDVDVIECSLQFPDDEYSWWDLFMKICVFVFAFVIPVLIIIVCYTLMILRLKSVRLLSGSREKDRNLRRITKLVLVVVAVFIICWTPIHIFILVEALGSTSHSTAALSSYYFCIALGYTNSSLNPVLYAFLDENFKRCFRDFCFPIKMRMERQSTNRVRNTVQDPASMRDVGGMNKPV

Structure (SMILES) | Ki [1] [nM] | Ki [2] [nM] | Ki (mu opioid receptor (MOR) [3]) [nM] | further results
O=C(O[C@@]12CCC(=O)[C@@H]3Oc4c(O)ccc5c4[C@@]31CCN(CC1CC1)[C@@H]2C5)c1ccccn1 [Compound 2, 17-cyclopropylmethyl-4,5α-epoxy-3-hydroxy-14β-O-(pyridyl-2’-carboxy)morphinan-6-one] | 25.5 ± 6.5 | 117 ± 18 | 0.14 ± 0.03 | Selectivity to the MOR over the KOR and the DOR (mu opioid receptor (MOR) [3]): above 30 fold
O=C(O[C@@]12CCC(=O)[C@@H]3Oc4c(O)ccc5c4[C@@]31CCN(CC1CC1)[C@@H]2C5)c1cccnc1 [Compound 3, 17-cyclopropylmethyl-4,5α-epoxy-3-hydroxy-14β-O-(pyridyl-3’- carboxy)morphinan-6-one] | 47.8 ± 8.5 | 170 ± 12.6 | 1.59 ± 0.61 | Selectivity to the MOR over the KOR and the DOR (mu opioid receptor (MOR) [3]): above 30 fold
O=C(O[C@@]12CCC(=O)[C@@H]3Oc4c(O)ccc5c4[C@@]31CCN(CC1CC1)[C@@H]2C5)c1ccncc1 [Compound 4, 17-cyclopropylmethyl-4,5α-epoxy-3-hydroxy-14β-O-(pyridyl-4’-carboxy)morphinan-6-one] | 49.2 ± 20.4 | 405 ± 235 | 5.58 ± 1.34 | –
O=C(O[C@@]12CCC(=O)[C@@H]3Oc4c(O)ccc5c4[C@@]31CCN(CC1CC1)[C@@H]2C5)c1ccccc1 [Compound 5, 17-cyclopropylmethyl-4,5α-epoxy-3-hydroxy-14β-O-(benzoyloxy)morphinan-6-one] | 586 ± 32.4 | > 10000 | 123 ± 38.2 | Selectivity δ/κ ([1]; Table 1, Ki ratio): >17; Selectivity δ/μ (mu opioid receptor (MOR) [3]; Table 1, Ki ratio): >81
O=C(O[C@@]12CCC(=O)[C@@H]3Oc4c(O)ccc5c4[C@@]31CCN(CC1CC1)[C@@H]2C5)c1cc2ccccc2cn1 [Compound 6, 17-cyclopropylmethyl-4,5α-epoxy-3-hydroxy-14β-O-(isoquinolyl-3’-carboxy)morphinan-6-one] | > 10000 | > 10000 | 68.4 ± 6 | Selectivity to the MOR over the KOR and the DOR (mu opioid receptor (MOR) [3]): above 30 fold; Selectivity δ/μ (mu opioid receptor (MOR) [3]; Table 1, Ki ratio): >146; Selectivity κ/μ (mu opioid receptor (MOR) [3]; Table 1, Ki ratio): >146
O=C(O[C@@]12CCC(=O)[C@@H]3Oc4c(O)ccc5c4[C@@]31CCN(CC1CC1)[C@@H]2C5)c1ccc2ccccc2n1 [Compound 7, 17-cyclopropylmethyl-4,5α-epoxy-3-hydroxy-14β-O-(quinolyl-2’-carboxy)morphinan-6-one] | 67.2 ± 36.7 | 22.8 ± 19.5 | 1.44 ± 0.32 | –
O=C(O[C@@]12CCC(=O)[C@@H]3Oc4c(O)ccc5c4[C@@]31CCN(CC1CC1)[C@@H]2C5)c1cnc2ccccc2c1 [Compound 8, 17-cyclopropylmethyl-4,5α-epoxy-3-hydroxy-14β-O-(quinolyl-3’-carboxy)morphinan-6-one] | 148 ± 55.5 | 818 ± 507 | 2.69 ± 0.72 | Selectivity to the MOR over the KOR and the DOR (mu opioid receptor (MOR) [3]): above 30 fold
O=C(O[C@@]12CCC(=O)[C@@H]3Oc4c(O)ccc5c4[C@@]31CCN(CC1CC1)[C@@H]2C5)c1ccc2ccccc2c1 [Compound 9, 17-cyclopropylmethyl-4,5α-epoxy-3-hydroxy-14β-O-(2-naphthoyloxy)morphinan-6-one] | 46.6 ± 13.5 | 907 ± 193 | 225 ± 46.6 | –
O=C(N[C@@]12CCC(=O)[C@@H]3Oc4c(O)ccc5c4[C@@]31CCN(CC1CC1)[C@@H]2C5)c1ccccn1 [Compound 10, 17-cyclopropylmethyl-4,5α-epoxy-3-hydroxy-14β-N-[(2’-pyridyl)carboxamido]morphinan-6-one] | 0.36 ± 0.01 | 94.5 ± 6.5 | 1.51 ± 0.34 | Wet dog shakes at 3 mg/kg (morphine dependent mice; 3 mg/kg s.c.): minimal number of wet dog shakes; Wet dog shakes at 10 mg/kg (morphine dependent mice; 10 mg/kg s.c., same level at 30 mg/kg): dramatic increase; Wet dog shakes at high doses (morphine dependent mice; 10 and 30 mg/kg s.c., compared with 1 mg/kg naloxone): still lower than that of 1 mg/kg naloxone; Escape jumps, effect of dose (morphine dependent mice): clear decrease of escape jumps as its dose increased (not significantly though); Precipitated withdrawal symptoms, overall comparison (morphine dependent mice; morphine-pelleted mice): less severe withdrawal symptoms than naloxone at high doses; Agonist effect in tail flick assay (antinociception): None of the compounds produced any significant agonist effect; EC50 [4]: 1.74 ± 0.5 nM; EC50 [5]: 19.7 ± 7.4 nM
O=C(N[C@@]12CCC(=O)[C@@H]3Oc4c(O)ccc5c4[C@@]31CCN(CC1CC1)[C@@H]2C5)c1cccnc1 [Compound 11, 17-cyclopropylmethyl-4,5α-epoxy-3-hydroxy-14β-N-[(3’-pyridyl)carboxamido]morphinan-6-one] | 0.16 ± 0.01 | 39.9 ± 0.5 | 0.75 ± 0.28 | Wet dog shakes at 30 mg/kg (morphine dependent mice): resembled the effect of 1 mg/kg naloxone and naltrexone; Escape jumps, effect of dose (morphine dependent mice): dose-response increasing effect; Wet dog shakes, effect of dose (morphine dependent mice): dose-response increasing effect; Precipitated withdrawal symptoms, overall comparison (morphine dependent mice; morphine-pelleted mice): behaved similarly to naltrexone; Agonist effect in tail flick assay (antinociception): None of the compounds produced any significant agonist effect; EC50 [4]: 0.56 ± 0.06 nM; EC50 [5]: 3.2 ± 2 nM
O=C(N[C@@]12CCC(=O)[C@@H]3Oc4c(O)ccc5c4[C@@]31CCN(CC1CC1)[C@@H]2C5)c1ccncc1 [Compound 12, 17-cyclopropylmethyl-4,5α-epoxy-3-hydroxy-14β-N-[(4’-pyridyl)carboxamido]morphinan-6-one] | 0.33 ± 0.01 | 10.9 ± 1.3 | 0.82 ± 0.33 | –
O=C(N[C@@]12CCC(=O)[C@@H]3Oc4c(O)ccc5c4[C@@]31CCN(CC1CC1)[C@@H]2C5)c1ccccc1 [Compound 13, 17-cyclopropylmethyl-4,5α-epoxy-3-hydroxy-14β-N-(benzamido)morphinan-6-one] | 0.12 ± 0.001 | 57.3 ± 4.3 | 4.34 ± 0.7 | –
O=C(N[C@@]12CCC(=O)[C@@H]3Oc4c(O)ccc5c4[C@@]31CCN(CC1CC1)[C@@H]2C5)c1cc2ccccc2cn1 [Compound 14, 17-cyclopropylmethyl-4,5α-epoxy-3-hydroxy-14β-N-[(3’-isoquinolyl)carboxamido]-morphinan-6-one] | 0.27 ± 0.02 | 25.1 ± 1.8 | 3.5 ± 1.87 | Wet dog shakes at 30 mg/kg (morphine dependent mice): resembled the effect of 1 mg/kg naloxone and naltrexone; Escape jumps, effect of dose (morphine dependent mice): no significant dose-response effect; Wet dog shakes, effect of dose (morphine dependent mice): dose-response increasing effect; Precipitated withdrawal symptoms, overall comparison (morphine dependent mice; morphine-pelleted mice): behaved similarly to naltrexone; Agonist effect in tail flick assay (antinociception): None of the compounds produced any significant agonist effect; EC50 [4]: 2.75 ± 0.71 nM; EC50 [5]: 14.2 ± 1.9 nM
O=C(N[C@@]12CCC(=O)[C@@H]3Oc4c(O)ccc5c4[C@@]31CCN(CC1CC1)[C@@H]2C5)c1ccc2ccccc2n1 [Compound 15, 17-cyclopropylmethyl-4,5α-epoxy-3-hydroxy-14β-N-[(2’-quinolyl)carboxamido]morphinan-6-one] | 0.26 ± 0.01 | 15.1 ± 0.6 | 9.09 ± 4.94 | –
O=C(N[C@@]12CCC(=O)[C@@H]3Oc4c(O)ccc5c4[C@@]31CCN(CC1CC1)[C@@H]2C5)c1cnc2ccccc2c1 [Compound 16, 17-cyclopropylmethyl-4,5α-epoxy-3-hydroxy-14β-N-[(3’-quinolyl)carboxamido]morphinan-6-one] | 0.13 ± 0.02 | 1.48 ± 0.05 | 1.13 ± 0.25 | –
O=C(N[C@@]12CCC(=O)[C@@H]3Oc4c(O)ccc5c4[C@@]31CCN(CC1CC1)[C@@H]2C5)c1ccc2ccccc2c1 [Compound 17] | 0.33 ± 0.02 | 10.5 ± 1.4 | 6.22 ± 4.01 | –
O=C(Cc1ccccn1)N[C@@]12CCC(=O)[C@@H]3Oc4c(O)ccc5c4[C@@]31CCN(CC1CC1)[C@@H]2C5 [Compound 18, 17-cyclopropylmethyl-4,5α-epoxy-3-hydroxy-14β-N-[2’-(pyridin-2”-yl)acetamido]morphinan-6-one] | 0.19 ± 0.03 | 3.92 ± 0.12 | 0.29 ± 0.04 | MOR agonism / efficacy in [35S]-GTPγS binding assay (in words) (mu opioid receptor (MOR) [6]): MOR partial agonist with relatively high efficacy
O=C(CCc1ccccn1)N[C@@]12CCC(=O)[C@@H]3Oc4c(O)ccc5c4[C@@]31CCN(CC1CC1)[C@@H]2C5 [Compound 19, 17-cyclopropylmethyl-4,5α-epoxy-3-hydroxy-14β-N-[3’-(pyridin-2”-yl)propanamido]morphinan-6-one] | 0.17 ± 0.02 | 9.1 ± 0.5 | 0.32 ± 0.04 | MOR agonism / efficacy in [35S]-GTPγS binding assay (in words) (mu opioid receptor (MOR) [6]): low efficacy MOR partial agonists
O=C(CNC(=O)c1ccccn1)N[C@@]12CCC(=O)[C@@H]3Oc4c(O)ccc5c4[C@@]31CCN(CC1CC1)[C@@H]2C5 [Compound 20, 17-cyclopropylmethyl-4,5α-epoxy-3-hydroxy-14β-N-{2’-[(pyridin-2”-yl)carboxamido]acetamido}morphinan-6-one] | 0.14 ± 0.01 | 0.37 ± 0.04 | 0.3 ± 0.01 | MOR agonism / efficacy in [35S]-GTPγS binding assay (in words) (mu opioid receptor (MOR) [6]): low efficacy MOR partial agonists
Oc1cccc2c1O[C@H]1CCC[C@H]3CN(CC4CC4)CC[C@@]231 [LTC-274, (-)-3-cyclopropylmethyl-2,3,4,4α,5,6,7,7α-octahydro-1H-benzofuro[3,2-e]isoquinolin-9-ol] | – | – | – | Emax (KOR partial agonist) (KOR): 23%
O=C1CC[C@@]2(O)[C@H]3Cc4ccc(O)c5c4[C@@]2(CCN3CC2CC2)[C@H]1O5 [NTX, naltrexone, reference compound] | – | – | – | Escape jumps (morphine dependent mice; [7]): over twenty times; Wet dog shakes (morphine dependent mice; [7]): above seven times

From publication PMC4373589 (Journal of medicinal chemistry, 2013)
